In patent US7919488B2, “Therapeutic compounds” (Pfizer Inc., priority 2006, dated 2011) one finds IC50 and Ki data, which are given here for 19 compounds.

Structures can show the parent of a compound that is named as a salt.

What all share (format): biochemical
Test [1] has as its target T1, CYP3A4 (Homo sapiens, UniProt P08684).
T1 construct: 0.1 mg/mL human liver microsomes; from tissue; host or cells: human liver microsomes
The experiment in a line: IC50 against CYP3A4 by inhibition of testosterone metabolism in human liver microsomes. The conditions noted are these: 0.1 mg/mL human liver microsomes, 25 μM testosterone, 1 mM NADPH, 6-β-OH-testosterone production, eight minutes; read-out: IC50, μM (HLM, testosterone). Summed up:
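Testosterone used as substrate, incubated for eight minutes. 6-β-OH-testosterone formation quantified by LC-MS/MS (MRM) as peak area ratio to internal standard against a metabolite standard curve. IC50 derived from inhibition of this metabolism.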
Background: Liver microsomes are vesicles of endoplasmic reticulum, rich in cytochrome P450 enzymes.

The target in test [2] is T1, CYP3A4. Kind of test: IC50 against CYP3A4 by inhibition of midazolam metabolism in human liver microsomes. The settings on record: 0.1 mg/mL human liver microsomes, 2 μM midazolam, 1 mM NADPH, 1-hydroxymidazolam production, eight minutes; read-out: IC50, μM (HLM, midazolam). An outline of the steps:
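Human liver microsomes (0.1 mg/mL) incubated 8 min with 2 μM midazolam and 1 mM NADPH in 100 mM potassium phosphate, pH 7.4. 1-Hydroxymidazolam quantified by LC-MS/MS (MRM) as peak area ratio to internal standard against a metabolite standard curve.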

In test [3] the target is T2, recombinant CYP3A4-b5 enzyme (Baculosomes®) (Homo sapiens, UniProt P08684).
T2 construct: purchased Invitrogen (Carlsbad, Calif.)
T2 sequence (P08684 whole entry): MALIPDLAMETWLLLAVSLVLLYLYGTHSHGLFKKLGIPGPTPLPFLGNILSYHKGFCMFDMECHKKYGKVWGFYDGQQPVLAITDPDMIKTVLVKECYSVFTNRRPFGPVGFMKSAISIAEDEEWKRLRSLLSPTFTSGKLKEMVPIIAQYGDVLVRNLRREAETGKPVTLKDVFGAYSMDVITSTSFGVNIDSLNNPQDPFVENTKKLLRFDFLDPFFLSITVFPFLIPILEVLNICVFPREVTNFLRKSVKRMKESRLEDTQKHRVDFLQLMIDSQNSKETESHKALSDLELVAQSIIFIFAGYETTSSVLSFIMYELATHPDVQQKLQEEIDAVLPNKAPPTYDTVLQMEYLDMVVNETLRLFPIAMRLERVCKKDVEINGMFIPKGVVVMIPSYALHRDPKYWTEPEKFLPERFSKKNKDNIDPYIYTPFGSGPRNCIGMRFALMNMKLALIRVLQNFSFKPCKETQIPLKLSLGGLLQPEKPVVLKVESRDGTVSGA
Kind of test: Kiapp against recombinant CYP3A4 enzyme (Baculosomes), BFC substrate. The settings on record: recombinant CYP3A4-b5 (Invitrogen), 5 uM BFC, 200 uM NADPH, pre-incubation at least 30 minutes, pH 7.0, room temperature. An outline of the steps:
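Recombinant CYP3A4-b5 Baculosomes were run in 100 mM sodium phosphate pH 7.0 with 5 mM TCEP and 2% DMF at room temperature, with ~30 min pre-incubation. The reaction was started with NADPH (200 uM) and BFC (5 uM), both final. Kiapp came from initial fluorescence velocities over the first 5 min across inhibitor concentrations.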

Test [4] addresses T3, recombinant CYP3A4+b5 enzyme (Supersomes®) (Homo sapiens, UniProt P08684).
T3 construct: purchased BD Biosciences (Woburn, Mass.)
The experiment in a line: Kiapp against recombinant CYP3A4 enzyme (Supersomes), BFC substrate. The conditions noted are these: recombinant CYP3A4+b5 (BD Biosciences), 5 uM BFC, 200 uM NADPH, pre-incubation at least 30 minutes, pH 7.0, room temperature. Here is the method:
1. Determination of Compound Kiapp
A determination of the Kiapp of the compounds of the invention against recombinant CYP3A4 enzyme was performed as follows. The assay was performed in a 100 mM sodium phosphate buffer pH 7.0, 5 mM TCEP and containing 2% dimethylformamide (final concentration) upon addition of substrate and inhibitor. A typical reaction for the determination of Kiapp values was carried at room temperature in a solid black Costar u-bottom 96-well polypropylene plate. In each well, recombinant CYP3A4 enzyme (5.5 nM or 8 nM, final concentration depending on the commercial source of the enzyme) was pre-incubated in the presence of the inhibitor for at least 30 minutes in the assay buffer. When pre-incubation was completed (˜30 min), the reaction was initiated by adding NADPH (200 uM, final concentration), and 7-benzyloxy-4-(trifluoromethyl)-coumarin (BFC) (5 uM, final concentration). The oxidation of the coumarin substrate was recorded by a 96-well plate reader POLARstar (BMG LABTECH, Offenburg, Germany).
The initial reaction velocities were measured during the first 5 min of the reaction when the release of the fluorescent product is linear with time, in the absence and in the presence of various concentrations of inhibitors. For non-partial & partial inhibitors, the Kiapp values were determined by using the equation for tight-binding inhibitor developed by Morrison, J F (Morrison J F. Biochim Biophys Acta. 1969, 185: 269-86) and by Szedlaseck S E et al. (Szedlascek, S. E., Ostafe, V., Serban, M., and Vlad, M. O. Biochem. J. 1988, 254:311-312), respectively.
The fluorescent substrate BFC was purchased from Sigma (St Louis, Mo.). Two commercial sources of recombinant enzymes were used in this study: recombinant CYP3A4-b5 enzyme (Baculosomes®) was purchased from Invitrogen (Carlsbad, Calif.) and the recombinant CYP3A4+b5 enzyme (Supersomes®) was purchased from BD Biosciences (Woburn, Mass.).

T3 sequence (P08684 2-503 limits assumed): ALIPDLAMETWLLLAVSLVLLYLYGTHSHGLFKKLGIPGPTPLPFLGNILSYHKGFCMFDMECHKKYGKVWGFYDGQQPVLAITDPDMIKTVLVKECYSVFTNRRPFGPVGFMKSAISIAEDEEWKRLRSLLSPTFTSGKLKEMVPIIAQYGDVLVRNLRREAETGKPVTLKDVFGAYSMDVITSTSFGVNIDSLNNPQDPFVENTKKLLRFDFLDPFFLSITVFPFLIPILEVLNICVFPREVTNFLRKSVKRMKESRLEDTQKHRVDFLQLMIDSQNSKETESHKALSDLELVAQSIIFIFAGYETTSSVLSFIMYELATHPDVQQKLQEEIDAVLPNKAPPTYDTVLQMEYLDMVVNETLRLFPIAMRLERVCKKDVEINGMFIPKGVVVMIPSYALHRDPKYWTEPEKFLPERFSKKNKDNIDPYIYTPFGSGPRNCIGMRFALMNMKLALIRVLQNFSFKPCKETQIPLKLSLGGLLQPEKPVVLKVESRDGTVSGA
T1 sequence (P08684 whole entry): as the sequence (P08684 whole entry) above

Consider `CC(C)(CN1CCOCC1)NC(=O)Cn1nc(-c2ccnnc2)cc1Cc1ccc(F)cc1` [Example 133, N-(1,1-dimethyl-2-morpholin-4-ylethyl)-2-[5-(4-fluorobenzyl)-3-pyridazin-4-yl-1H-pyrazol-1-yl]acetamide], for which the figures for the IC50 on CYP3A4 [1] and at CYP3A4 [2] were 0.044 µM and 0.083 µM, respectively. In addition, the Ki in test [3] stood at 0.21 µM; in test [4] it was 0.174 µM.

In the case of `COC(=O)N(C)C1CCN(C(=O)Cn2nc(-c3ccncc3)cc2Cc2ccc(F)cc2)C1` (stereo not shown) [Example 128, methyl (1-{[5-(4-fluorobenzyl)-3-pyridin-4-yl-1H-pyrazol-1-yl]acetyl}pyrrolidin-3-yl)methylcarbamate], the IC50 (in general, the concentration that gives 50% inhibition) stood at 0.026 µM at CYP3A4 [1] and 0.022 µM at CYP3A4 [2]. Also, the Ki in test [3] is 0.0488 µM; in test [4], 0.00507 µM.

`CC(=O)N1CCN(C(=O)Cn2nc(-c3ccncc3)cc2Cc2ccc(F)cc2)CC1` [Example 134, 1-acetyl-4-{[5-(4-fluorobenzyl)-3-pyridin-4-yl-1H-pyrazol-1-yl]acetyl}piperazine]: the IC50 came to 0.051 µM on CYP3A4 [1] and 0.0169 µM on CYP3A4 [2]. Further, the results for the Ki in test [3] and in test [4] were 0.131 µM and 0.0168 µM, respectively.

With `O=C(Cn1nc(-c2ccncc2)cc1Cc1ccc(F)cc1)N1CCC(N2CCOC2=O)CC1` [Example 118, 3-(1-{[5-(4-fluorobenzyl)-3-pyridin-4-yl-1H-pyrazol-1-yl]acetyl}piperidin-4-yl)-1,3-oxazolidin-2-one], the IC50 on CYP3A4 [1] was 0.013 µM; on CYP3A4 [2] it was 0.00837 µM. Moreover, the results for the Ki in test [3] and in test [4] were 0.0442 µM and 0.0065 µM, respectively.

As to `CS(=O)(=O)NC1CCN(C(=O)Cn2nc(-c3c[nH]cn3)cc2Cc2ccc(F)cc2)CC1` [Example 119, N-(1-{2-[5-(4-fluorobenzyl)-3-(1H-imidazol-4-yl)-1H-pyrazol-1-yl]acetyl}piperidin-4-yl)methanesulfonamide], the figures for the IC50 at CYP3A4 [1] and at CYP3A4 [2] were over 0.75 µM and 0.167 µM, respectively. Moreover, the Ki in test [3] came to 0.314 µM; in test [4], 0.166 µM.

On to `CC(=O)NC(C)(C)CNC(=O)Cn1nc(-c2ccncc2)cc1Cc1ccc(F)cc1` [Example 71, N-[2-(acetylamino)-2-methylpropyl]-2-[5-(4-fluorobenzyl)-3-pyridin-4-yl-1H-pyrazol-1-yl]acetamide], for which the values for the IC50 on CYP3A4 [1] and on CYP3A4 [2] were 0.035 µM and 0.034 µM, respectively. The Ki in test [3] turned out to be 0.0599 µM; in test [4], 0.0237 µM.

On to `O=C(Cn1nc(-c2ccncc2)cc1Cc1ccc(F)cc1)N1CCCC(N2CCOCC2)CC1` (stereo not shown) [Example 4, 1-{[5-(4-fluorobenzyl)-3-pyridin-4-yl-1H-pyrazol-1-yl]acetyl}-4-morpholin-4-ylazepane, maleic acid salt], for which the IC50 at CYP3A4 [1] was determined as 0.057 µM; at CYP3A4 [2], 0.023 µM. Further, the Ki worked out at 0.0211 µM in test [3] and 0.0061 µM in test [4].

Take `CC(=O)N[C@@H]1CCN(C(=O)Cn2nc(-c3ccncc3)cc2Cc2ccc(F)cc2)C1` [Example 100, N-[(3R)-1-{2-[5-(4-fluorobenzyl)-3-pyridin-4-yl-1H-pyrazol-1-yl]acetyl}pyrrolidin-3-yl]acetamide]: the results for the IC50 at CYP3A4 [1] and on CYP3A4 [2] were 0.0845 µM and 0.044 µM, respectively. For the same compound, the Ki was found to be 0.298 µM in test [3] and 0.0225 µM in test [4].

As to `CNC1CCN(C(=O)Cn2nc(-c3ccncc3)cc2Cc2ccc(F)cc2)CC1` [Example 7, 1-{[5-(4-fluorobenzyl)-3-pyridin-4-yl-1H-pyrazol-1-yl]acetyl}-N-methylpiperidin-4-amine], the IC50 at CYP3A4 [1] is 0.105 µM; on CYP3A4 [2], 0.073 µM. In addition, the values for the Ki in test [3] and in test [4] were 0.196 µM and 0.033 µM, respectively.

Turning to `CS(=O)(=O)CCN1CCN(C(=O)Cn2nc(-c3ccncc3)cc2Cc2ccc(F)cc2)CC1` [Example 131, 1-{[5-(4-fluorobenzyl)-3-pyridin-4-yl-1H-pyrazol-1-yl]acetyl}-4-[2-(methylsulfonyl)ethyl] piperazine], the results for the IC50 at CYP3A4 [1] and at CYP3A4 [2] were 0.037 µM and 0.0139 µM, respectively. The Ki in test [3] came out at 0.0111 µM; in test [4], 0.00283 µM.

As to `O=C(Cn1nc(-c2ccncc2)cc1Cc1ccc(F)cc1)N1CCC(N2CCCCC2=O)CC1` [Example 136, 1′-{[5-(4-fluorobenzyl)-3-pyridin-4-yl-1H-pyrazol-1-yl]acetyl}-1,4′-bipiperidin-2-one], the 50% inhibitory concentration (IC50) at CYP3A4 [1] was 0.023 µM; on CYP3A4 [2], under 0.00833 µM. Further, the Ki in test [3] was determined as 0.0291 µM; in test [4], 0.0119 µM.

`CN(C(=O)Cn1nc(-c2ccncc2)cc1Cc1ccc(F)cc1)[C@H]1CC[C@@H](O)CC1` [Example 135, 2-[5-(4-fluorobenzyl)-3-pyridin-4-yl-1H-pyrazol-1-yl]-N-(cis-4-hydroxycyclohexyl)-N-methylacetamide]: the IC50 on CYP3A4 [1] is 0.021 µM; at CYP3A4 [2], 0.00867 µM. Moreover, the values for the Ki in test [3] and in test [4] were 0.108 µM and 0.0358 µM, respectively.

In the case of `CS(=O)(=O)C1CCN(C(=O)Cn2nc(-c3ccncc3)cc2Cc2ccc(F)cc2)C1` (stereo not shown) [Example 132, 4-[5-(4-fluorobenzyl)-1-{2-[3-(methylsulfonyl)-pyrrolidin-1-yl]-2-oxoethyl}-1H-pyrazol-3-yl]pyridine], the IC50 at CYP3A4 [1] is 0.04 µM; at CYP3A4 [2], 0.023 µM. For the same compound, the Ki in test [3] amounted to 0.0996 µM; in test [4], 0.0716 µM.

`O=C(Cn1nc(-c2ccncc2)cc1Cc1ccc(F)cc1)N[C@H]1CC[C@@H](O)CC1` [Example 95, 2-[5-(4-fluorobenzyl)-3-pyridin-4-yl-1H-pyrazol-1-yl]-N-(cis-4-hydroxycyclohexyl)-acetamide]: the IC50 on CYP3A4 [1] is under 0.021 µM; at CYP3A4 [2] it was under 0.012 µM. In addition, the Ki was 0.0871 µM in test [3] and 0.0059 µM in test [4].

With `CC(=O)N(C)C1CCN(C(=O)Cn2nc(-c3ccncc3)cc2Cc2ccc(F)cc2)C1` (stereo not shown) [Example 99, N-(1-{[5-(4-fluorobenzyl)-3-pyridin-4-yl-1H-pyrazol-1-yl]acetyl}pyrrolidin-3-yl)-N-methylacetamide], the IC50 at CYP3A4 [1] was 0.064 µM; on CYP3A4 [2], 0.032 µM. In addition, the Ki in test [3] was 0.248 µM; in test [4] it was 0.0178 µM.

Regarding `Fc1ccc(Cc2cc(-c3ccncc3)n[nH]2)cc1` [Example 1, 4-[5-(4-fluorobenzyl)-1H-pyrazol-3-yl]pyridine], the 50% inhibitory concentration (IC50) at CYP3A4 [1] is under 0.022 µM; at CYP3A4 [2] it was 0.077 µM. In addition, the Ki is 0.0557 µM in test [3] and 0.0064 µM in test [4].

Turning to `O=C(Cn1nc(-c2ccncc2)cc1Cc1ccc(F)cc1)NC1CCS(=O)(=O)C1` (stereo not shown) [Example 93, N-(1,1-dioxidotetrahydro-3-thienyl)-2-[5-(4-fluorobenzyl)-3-pyridin-4-yl-1H-pyrazol-1-yl]acetamide], the IC50 on CYP3A4 [1] is 0.007 µM; on CYP3A4 [2] it was 0.014 µM. Further, the figures for the Ki in test [3] and in test [4] were 0.0134 µM and 0.0039 µM, respectively.

For `O=C(Cn1nc(-c2ccncc2)cc1Cc1ccc(F)cc1)N1CCC(N2CCCS2(=O)=O)CC1` [Example 120, 4-[1-{2-[4-(1,1-dioxidoisothiazolidin-2-yl)piperidin-1-yl]-2-oxoethyl}-5-(4-fluorobenzyl)-1H-pyrazol-3-yl]pyridine], the IC50 on CYP3A4 [1] is 0.027 µM; at CYP3A4 [2], 0.017 µM. Besides, the figures for the Ki in test [3] and in test [4] were 0.003 µM and 0.0068 µM, respectively.

With `COC(=O)NC1CN(C(=O)Cn2nc(-c3ccncc3)cc2Cc2ccc(F)cc2)C1` [Example 124, methyl (1-{[5-(4-fluorobenzyl)-3-pyridin-4-yl-1H-pyrazol-1-yl]acetyl}azetidin-3-yl)carbamate], the IC50 at CYP3A4 [1] was 0.032 µM; at CYP3A4 [2], 0.025 µM. Also, the Ki in test [3] came out at 0.123 µM; in test [4], 0.0147 µM.
